According to patent US20110178105A1, “CLINICAL BENEFITS OF EICOSAPENTAENOIC ACID IN HUMANS” (E.I. DU PONT DE NEMOURS AND COMPANY, priority 2010, published 2011):

Tests used:
Type in all cases: in vivo, human
[1] = Clinical study: post-prandial lipids 4 hours after fat-rich test meal; settings: 6 weeks
Experimental: (§1) At visit 2, subjects were again asked to fast for 12 hours, and information about subject characteristics including all vital signs, recent illness or hospitalization, medication and supplement use, and diet information was again obtained. Subjects then had blood drawn for a metabolic profile and complete blood counts. […] Subjects (30 in each group) were then randomized equally for 6 weeks to one of four treatment arms: 1) olive oil placebo; 2) 600 mg of EPA/day; 3) 1800 mg of EPA/day; and, 4) 600 mg of DHA/day. At one week and three weeks after beginning the supplements, all study subjects were contacted by telephone and asked about any adverse effects and about their compliance, and the information on their calendars with regard to capsule use and fish intake. They were also asked about whether they had experienced any fishy aftertaste or odor, and if so, how frequent were these episodes, and how unpleasant were they? The entire process as listed above was repeated after study subjects were on the study capsules for 6 weeks at the time of the final visit. Compliance and adverse events were assessed by telephone at weeks 1 and 3 by telephone and at week 6 by questionnaire and capsule count. Over 42 days, subjects were expected to have consumed a total of 252 capsules. Compliance was calculated as a percentage of consumed capsule count/expected capsule count based on the number of days the subject was in the study. All subjects were asked to stay on their capsules until they come in for their final visit. Compliance in all participants who completed the study was based on capsule count was in excess of 85%, mean 96%.
(§2) On the samples obtained 4 hours after the fat-rich meal, total cholesterol, triglycerides, direct HDL cholesterol, and direct LDL cholesterol were measured. Direct LDL cholesterol and small dense LDL cholesterol levels were measured using kits obtained from Denka-Seiken Corporation, (Tokyo, Japan), as previously described (Okada, M. et al., supra; Hirano, T. et al., supra; Ai, M. et al., supra). Remnant lipoprotein cholesterol was measured using kits obtained from Polymedco (Cortland Manor, N.Y.) and manufactured by Otsuka Corporation (Tokyo, Japan) as previously described (McNamara, J. R. et al., Atherosclerosis, supra). All lipid assays are standardized through the Lipid Research Clinics standardization program of the Centers for Disease Control (Atlanta, Ga.). All assays had between and within run coefficients of variation of <5%. Serum fatty acid profiles were analyzed by Nutrasource Diagnostics (Guelph, Ontario, Canada).

[2] = Clinical study: inflammation markers, adhesion molecules, adiponectin (hsCRP, IL-6, sICAM, VCAM); settings: Fast, 6 weeks
Experimental: (§3) The following laboratory measurements were carried out on an automated analyzer (Roche Diagnostics, Indianapolis, Ind.) on samples obtained in the fasting state at the randomization visit, and the final visits using frozen aliquots of serum stored at −80 degrees Celsius: 1) total cholesterol; 2) triglycerides; 3) direct high density lipoprotein [“HDL”] cholesterol; 4) direct low density lipoprotein [“LDL”] cholesterol; 5) direct small dense LDL cholesterol; 6) apolipoprotein [“apo”] B; 7) apoA-I; 8) lipoprotein (a); 9) fibrinogen; 10) high sensitivity C reactive protein [“hs-CRP”]; 11) lipoprotein associated phospholipase A2 [“Lp-PLA2”]; and, 12) insulin as previously described. See, McNamara, J. R. and Schaefer, E. J., Clin. Chim. Acta, 166:1-8 (1987); Okada, M. et al., J. Lab. Clin. Med., 132:195-201 (1998); Hirano, T. et al., J. Lipid Res., 44:2193-2201 (2003); Ai, M. et al., Am. J. Cardiol., 101:315-318 (2008); Ingelsson, E. et al., JAMA, 298:776-785 (2007); Jenner, J. L. et al., Circulation, 87:1135-1141 (1993); Schaefer, E. J. et al., Am. J. Cardiol., 95:1025-1032 (2005); McNamara, J. R. et al., Atherosclerosis, 154:229-236 (2001).
Plasma apoB-48 was measured with an enzyme linked immunosorbent assay obtained from the Shibayagi Company (Gunma, Japan) (Kinoshita, M. et al., Clin. Chim. Acta, 351:115-120 (2005); Otokozawa, S. et al., Atherosclerosis, 205:197-201 (2009); Otokozawa, S. et al., Metabolism, 58(11): 1536-1542 (2009)). ICAM1 and VCAM1, interleukin-6 or IL-6, and adiponectin were all measured using commercially available enzyme linked immunoassays [“ELISA”] obtained from the R & D Corporation (Minneapolis, Minn.). All these assays have within and between run coefficients of variation of less than 10%.

[3] = Clinical study: fasting serum lipids, lipoproteins and apolipoproteins (automated analyzer); settings: 6 weeks
Experimental: as §1, §3, §2

SMILES: CCC=CCC=CCC=CCC=CC/C=C\CCCC(=O)O [EPA, cis-5,8, 11, 14, 17-eicosapentaenoic acid]
- HDL C, 6-Week Change (%) ([1]; EPA 600 mg (n = 27)): +4.8 ± 20.7%
- HDL C, Final ([1]; EPA 600 mg (n = 27)): 53.1 ± 16.4 mg/dL
- LDL C, 6-Week Change (%) ([1]; EPA 600 mg (n = 27)): −1.4 ± 12.9%
- LDL C, Final ([1]; EPA 600 mg (n = 27)): 108.2 ± 32.2 mg/dL
- Total Cholesterol, 6-Week Change (%) ([1]; EPA 600 mg (n = 27)): −0.3 ± 8.6%
- Total Cholesterol, Final ([1]; EPA 600 mg (n = 27)): 193.3 ± 44.7 mg/dL
- Triglyceride, 6-Week Change (%) ([1]; EPA 600 mg (n = 27)): −3.1 ± 36.9%
- Triglyceride, Final ([1]; EPA 600 mg (n = 27)): 184.9 ± 98.5 mg/dL
- HDL C, 6-Week Change (%) ([1]; EPA 1800 mg (n = 29)): +3.4 ± 11.5%
- HDL C, Final ([1]; EPA 1800 mg (n = 29)): 55.3 ± 15.3 mg/dL
- LDL C, 6-Week Change (%) ([1]; EPA 1800 mg (n = 29)): −2.7 ± 13.6%
- LDL C, Final ([1]; EPA 1800 mg (n = 29)): 111.5 ± 25.2 mg/dL
- Total Cholesterol, 6-Week Change (%) ([1]; EPA 1800 mg (n = 29)): −1.4 ± 9.9%
- Total Cholesterol, Final ([1]; EPA 1800 mg (n = 29)): 197.3 ± 33.8 mg/dL
- Triglyceride, 6-Week Change (%) ([1]; EPA 1800 mg (n = 29)): −3.8 ± 40.2%
- Triglyceride, Final ([1]; EPA 1800 mg (n = 29)): 193.5 ± 184.2 mg/dL
- Adiponectin, 6-Week Change (%) ([2]; EPA 600 mg (n = 27)): 11.3 ± 31.4%
- Adiponectin, Final ([2]; EPA 600 mg (n = 27)): 9501.4 ± 5894.3 ng/mL
- IL-6, 6-Week Change (%) ([2]; EPA 600 mg (n = 27)): +35.3 ± 126.1%
- IL-6, Final ([2]; EPA 600 mg (n = 27)): 2.0 ± 1.8 pg/mL
- VCAM, 6-Week Change (%) ([2]; EPA 600 mg (n = 27)): +2.2 ± 12.6%
- VCAM, Final ([2]; EPA 600 mg (n = 27)): 722.8 ± 178.0 ng/mL
- hsCRP, 6-Week Change (%) ([2]; EPA 600 mg (n = 27)): +115.6 ± 508.4%
- hsCRP, Final ([2]; EPA 600 mg (n = 27)): 3.3 ± 4.9 mg/L
- sICAM, 6-Week Change (%) ([2]; EPA 600 mg (n = 27)): +3.2 ± 19.0%
- sICAM, Final ([2]; EPA 600 mg (n = 27)): 232.4 ± 62.7 ng/mL
- Adiponectin, 6-Week Change (%) ([2]; EPA 1800 mg (n = 29)): 16.4 ± 82.6%
- Adiponectin, Final ([2]; EPA 1800 mg (n = 29)): 17578.6 ± 45606.9 ng/mL
- IL-6, 6-Week Change (%) ([2]; EPA 1800 mg (n = 29)): +3.1 ± 50.1%
- IL-6, Final ([2]; EPA 1800 mg (n = 29)): 1.3 ± 0.7 pg/mL
- VCAM, 6-Week Change (%) ([2]; EPA 1800 mg (n = 29)): +1.0 ± 13.5%
- VCAM, Final ([2]; EPA 1800 mg (n = 29)): 607.5 ± 125.7 ng/mL
- hsCRP, 6-Week Change (%) ([2]; EPA 1800 mg (n = 29)): +26.0 ± 113.0%
- hsCRP, Final ([2]; EPA 1800 mg (n = 29)): 2.7 ± 4.7 mg/L
- sICAM, 6-Week Change (%) ([2]; EPA 1800 mg (n = 29)): −2.6 ± 17.1%
- sICAM, Final ([2]; EPA 1800 mg (n = 29)): 206.9 ± 50.5 ng/mL
- LDL cholesterol levels ([3]; FIG. 5): did not increase
- HDL C, 6-Week Change (%) ([3]; EPA 600 mg (n = 27), Fast): +0.4 ± 13.7%
- HDL C, Final ([3]; EPA 600 mg (n = 27), Fast): 57.9 ± 18.0 mg/dL
- LDL C, 6-Week Change (%) ([3]; EPA 600 mg (n = 27), Fast): −2.5 ± 11.7%
